Results: patent US20220249413A1, “SWELL 1 MODULATORS FOR TREATMENT OF NON-ALCOHOLIC FATTY LIVER DISEASE, IMMUNE DEFICIENCIES, MALE INFERTILITY AND VASCULAR DISEASES” (priority 2019, published 2022)

Test: Tolerability during chronic injection protocols
Format: in vivo, mouse
Settings: daily injections for up to 8 weeks, 5 mg/kg i.p.
Excerpt: Patients Human islets and adipocytes were obtained and cultured as described previously (Zhang et al., Nat Cell Biol, 19, 504-517, 2017; Kang et al., Nature Communications, 9, 367, 2018). The Patients involved in the study were anonymous and information such as gender, age, HbA1c, glucose levels and BMI only were available to the research team. The study was approved and carried out as per the guidelines of the University of Iowa Institutional Review Board (IRB). Animals All experimental procedures involving mice were approved by the Institutional Animal Care and Use Committee of the University of Iowa and Washington University at St. Louis. All C57BL/6 mice involved in study were purchased from Charles River Labs. Both KK.Cg-Ay/J (KKA^y) and KK.Cg-Aa/J (KKA^a) mice involved in study were gender and age-matched mice obtained from Jackson Labs (Stock No: 002468) and bred up for experiments. The mice were fed ad libitum with either regular chow (RC) or high-fat diet (Research Diets, Inc., 60 kcal % fat) with free access to water and housed in a light-, temperature- and humidity-controlled room. For high-fat diet (HFD) studies, only male mice were used and were started on HFD regimen at the age of 6-9 weeks. For all experiments involving KKA^y and KKA^a mice, both males and females were used at approximately 50/50 ratio. […] Based on GFP fluorescence, viral transduction efficiency was ˜90%.

CCCCC1(C2CCCC2)Cc2cc(OCCCC(=O)O)c(Cl)c(Cl)c2C1=O (stereo not shown) [Smod1, 4-[(2-Butyl-6,7-dichloro-2-cyclopentyl-2,3-dihydro-1-oxo-1H-inden-5-yl)oxy]butanoic acid]
signs of toxicity: no overt signs of toxicity
